Values joined by “and” are separate entries in the source; they are usually repeats but may differ in a detail not shown here. Equal entries are not always repeated. Toxic doses and inconclusive results are not listed.
Test system: B6C3F1 mice, B16 melanoma ip, median survival T/C
Test: NCI In Vivo Anticancer Drug Screen. Data for tumor model B16 Melanoma (intraperitoneal) in B6C3F1 mice
Conditions: endpoint: median survival time, schedule: Q01DX009 (ip), higher = longer survival
Summary of the method: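 Transplantable tumor in mice; treated vs vehicle control groups; survival or tumor size measured; value = T/C ratio.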

[1] = dose: 50.0 mg/kg/injection, vehicle: Klucel (hydroxypropylcellulose) (HPC)
[2] = dose: 100.0 mg/kg/injection, vehicle: Klucel (hydroxypropylcellulose) (HPC)
[3] = dose: 200.0 mg/kg/injection, vehicle: Klucel (hydroxypropylcellulose) (HPC)
[4] = dose: 0.78 mg/kg/injection, vehicle: saline with Tween-80
[5] = dose: 1.56 mg/kg/injection, vehicle: saline with Tween-80
[6] = dose: 6.25 mg/kg/injection, vehicle: saline with Tween-80
[7] = dose: 200.0 mg/kg/injection, vehicle: saline with Tween-80
[8] = dose: 100.0 mg/kg/injection, vehicle: saline
[9] = dose: 50.0 mg/kg/injection, vehicle: saline with Tween-80
[10] = dose: 100.0 mg/kg/injection, vehicle: saline with Tween-80
[11] = dose: 3.12 mg/kg/injection, vehicle: Klucel (hydroxypropylcellulose) (HPC)
[12] = dose: 6.25 mg/kg/injection, vehicle: Klucel (hydroxypropylcellulose) (HPC)
[13] = dose: 12.5 mg/kg/injection, vehicle: Klucel (hydroxypropylcellulose) (HPC)
[14] = dose: 6.25 mg/kg/injection, vehicle: saline
[15] = dose: 12.5 mg/kg/injection, vehicle: saline
[16] = dose: 25.0 mg/kg/injection, vehicle: Klucel (hydroxypropylcellulose) (HPC)
[17] = dose: 12.5 mg/kg/injection, vehicle: saline with Tween-80
[18] = dose: 25.0 mg/kg/injection, vehicle: saline with Tween-80
[19] = dose: 25.0 mg/kg/injection, vehicle: saline
[20] = dose: 50.0 mg/kg/injection, vehicle: saline
[21] = dose: 0.75 mg/kg/injection, vehicle: saline with Tween-80
[22] = dose: 1.5 mg/kg/injection, vehicle: saline with Tween-80

With `CC(C)(C)OC(=O)NC(Cc1ccccc1)C(=O)O` (stereo not drawn) the T/C [1] was 104 % of control, the T/C [2] was 88 % of control and the T/C [3] was 100 % of control.

With `Oc1cc2ccccc2c(-c2c(O)c(O)cc3ccccc23)c1O` the T/C [4] was 95 % of control, the T/C [5] was 115 % of control and the T/C (dose: 3.12 mg/kg/injection, vehicle: saline with Tween-80) was 99 % of control. The T/C [6] was 111 % of control and 93 % of control and the T/C [7] was 100 % of control.

`CC(C)(C)OC(=O)NC(CCC(=O)O)C(=O)O` (stereo not drawn) was tested, and the T/C [8] was 107 % of control, the T/C (dose: 200.0 mg/kg/injection, vehicle: saline) was 107 % of control and the T/C (dose: 400.0 mg/kg/injection, vehicle: saline) was 94 % of control.

`CCc1cccc(CC)c1-n1c(C)ccc1-c1ccccc1` was tested, and the T/C [9] was 100 % of control and the T/C [10] was 107 % of control.

For `C[C@@H]1C[C@H]2[C@@H]3CCC4=CC(=O)C=C[C@]4(C)[C@@]3(F)[C@@H](O)C[C@]2(C)[C@@]1(O)C(=O)CO`, the T/C [11] was 109 % of control, the T/C [12] was 118 % of control and the T/C [13] was 104 % of control.

In the case of `N=C(N)CCCCCCCCC(=N)N`, the T/C (dose: 0.78 mg/kg/injection, vehicle: saline) is reported as 99 % of control and 102 % of control, the T/C (dose: 1.56 mg/kg/injection, vehicle: saline) is reported as 108 % of control and 112 % of control and the T/C (dose: 3.12 mg/kg/injection, vehicle: saline) is reported as 110 % of control. For the same compound, the T/C (dose: 3.13 mg/kg/injection, vehicle: saline) was 102 % of control, the T/C [14] was 118 % of control and 106 % of control and the T/C [15] was 112 % of control.

In the case of `Cn1c(=O)c2c(nc(CCCCc3nc4c(c(=O)n(C)c(=O)n4C)n3C)n2C)n(C)c1=O`, the T/C [4] is reported as 91 % of control, the T/C [5] is reported as 109 % of control and the T/C (dose: 3.13 mg/kg/injection, vehicle: saline with Tween-80) is reported as 93 % of control. For the same compound, the T/C [6] was 93 % of control.

With `O=C(O)C1C2CC3C(C2)C31.[Ag]` (stereo not drawn) the T/C [12] was 90 % of control, the T/C [13] was 88 % of control and the T/C [16] was 100 % of control.

In the case of `C=C1C(=O)OC2/C=C(\C)CC/C=C(/C)CC(OC(=O)/C(=C/CO)CO)C12` (stereo not drawn), the T/C (dose: 10.0 mg/kg/injection, vehicle: Klucel (hydroxypropylcellulose) (HPC)) is reported as 106 % of control, the T/C (dose: 20.0 mg/kg/injection, vehicle: Klucel (hydroxypropylcellulose) (HPC)) is reported as 98 % of control and the T/C (dose: 40.0 mg/kg/injection, vehicle: Klucel (hydroxypropylcellulose) (HPC)) is reported as 96 % of control.

`CCN(CC)c1ccc2[nH]c3c(C(N)=O)cc(=O)c(=O)c=3oc2c1` was tested, and the T/C [17] was 96 % of control and the T/C [18] was 112 % of control.

In the case of `NC(=O)Oc1cc(OC(N)=O)cc(N(CCCl)CCCl)c1`, the T/C [11] is reported as 115 % of control, the T/C [12] is reported as 107 % of control and the T/C [14] is reported as 91 % of control. For the same compound, the T/C [15] was 96 % of control, the T/C [16] was 170 % of control and the T/C [19] was 104 % of control. For the same compound, the T/C [20] was 104 % of control and the T/C [8] was 102 % of control.

For `N=C(N)SCc1c2ccccc2c(CSC(=N)N)c2ccccc12`, the T/C [14] was 156 % of control, the T/C [15] was 181 % of control and the T/C [19] was 228 % of control. The T/C [20] was 320 % of control.

`COc1ccc(OC)c(/C=C/c2ccnc3ccccc23)c1` was tested, and the T/C (dose: 50.0 mg/kg/injection, vehicle: saline sonified) was 95 % of control, the T/C (dose: 100.0 mg/kg/injection, vehicle: saline sonified) was 107 % of control and the T/C (dose: 200.0 mg/kg/injection, vehicle: saline sonified) was 117 % of control.

In the case of `CC(/C=C/c1ccccc1)=Nc1ccccc1`, the T/C [17] is reported as 99 % of control, the T/C [18] is reported as 102 % of control and the T/C [9] is reported as 99 % of control. The T/C [10] was 115 % of control and the T/C [7] was 110 % of control.

For `C[C@H]1C[C@@H]2[C@H]([C@@H](O)C[C@@]3(C)[C@H]2CC[C@]3(O)C(=O)CO)[C@@]2(C)C=CC(=O)C=C12`, the T/C [12] was 115 % of control and 101 % of control, the T/C [13] was 110 % of control and 101 % of control and the T/C [16] was 114 % of control and 107 % of control. For the same compound, the T/C [1] was 109 % of control and 111 % of control, the T/C [2] was 118 % of control and 119 % of control and the T/C [3] was 112 % of control and 121 % of control.

In the case of `CN=C(N)N/N=C(\C)c1ccc2c(c1)Cc1cc(/C(C)=N/NC(N)=NC)ccc1-2`, the T/C [21] is reported as 97 % of control and the T/C [22] is reported as 101 % of control.

With `CCCCNC(C)(C)COC(=O)/C=C/c1ccc(OCCCC)cc1` the T/C [17] was 98 % of control, the T/C [18] was 93 % of control and the T/C [9] was 90 % of control.

With `N#CC(=C1SCS1)[N+](=O)[O-]` the T/C (dose: 0.37 mg/kg/injection, vehicle: saline with Tween-80) was 108 % of control, the T/C [21] was 100 % of control and the T/C [22] was 105 % of control. The T/C (dose: 3.0 mg/kg/injection, vehicle: saline with Tween-80) was 119 % of control, the T/C (dose: 6.0 mg/kg/injection, vehicle: saline with Tween-80) was 118 % of control and the T/C (dose: 12.0 mg/kg/injection, vehicle: saline with Tween-80) was 107 % of control. For the same compound, the T/C (dose: 375.0 micrograms/kg/injection, vehicle: saline with Tween-80) was 107 % of control, the T/C (dose: 750.0 micrograms/kg/injection, vehicle: saline with Tween-80) was 104 % of control and the T/C (dose: 1500.0 micrograms/kg/injection, vehicle: saline with Tween-80) was 113 % of control. For the same compound, the T/C (dose: 3000.0 micrograms/kg/injection, vehicle: saline with Tween-80) was 108 % of control and the T/C (dose: 6000.0 micrograms/kg/injection, vehicle: saline with Tween-80) was 101 % of control.

`NCCCNCCCCNC(=O)C(O)NC(=O)CC(O)CCCCN=C(N)N` (stereo not drawn) was tested, and the T/C [14] was 101 % of control, the T/C [15] was 99 % of control and the T/C [19] was 98 % of control and 101 % of control. For the same compound, the T/C [20] was 99 % of control and 101 % of control and the T/C [8] was 111 % of control and 107 % of control.

In the case of `O=C1CN(CN2CCOCC2)C(=O)CN1CN1CCOCC1`, the T/C [17] is reported as 88 % of control, the T/C [18] is reported as 94 % of control and the T/C [9] is reported as 93 % of control. For the same compound, the T/C [10] was 102 % of control and the T/C [7] was 100 % of control.

`CCCCCCCCCCCC(=O)NC1CC(O[C@H]2C[C@](O)(C(=O)CO)Cc3c(O)c4c(c(O)c32)C(=O)c2c(OC)cccc2C4=O)OC(C)C1O` (stereo partly drawn) was tested, and the T/C (dose: 3.0 mg/kg/injection, vehicle: saline) was 171 % of control and 294 % of control, the T/C (dose: 6.0 mg/kg/injection, vehicle: saline) was 250 % of control and 333 % of control and the T/C (dose: 12.0 mg/kg/injection, vehicle: saline) was 333 % of control and 357 % of control. For the same compound, the T/C (dose: 24.0 mg/kg/injection, vehicle: saline) was 122 % of control and 357 % of control and the T/C (dose: 48.0 mg/kg/injection, vehicle: saline) was 94 % of control.

In the case of `c1ccc2[nH]ncc2c1`, the T/C [9] is reported as 107 % of control, the T/C [10] is reported as 104 % of control and the T/C [7] is reported as 102 % of control.

In the case of `Cc1ccc(C(=O)OC(C(=O)O)C(OC(=O)c2ccc(C)cc2)C(=O)O)cc1` (stereo not drawn) (tested in a mixture with another compound), the T/C (dose: 6.25 mg/kg/injection, vehicle: other) is reported as 93 % of control, the T/C (dose: 12.5 mg/kg/injection, vehicle: other) is reported as 91 % of control and the T/C (dose: 25.0 mg/kg/injection, vehicle: other) is reported as 111 % of control.

For `CCOC(=O)c1ccc(NC(=O)Nc2nncs2)cc1`, the T/C (dose: 6.25 mg/kg/injection, vehicle: distilled water + Tween-80) was 100 % of control, the T/C (dose: 12.5 mg/kg/injection, vehicle: distilled water + Tween-80) was 110 % of control and the T/C (dose: 25.0 mg/kg/injection, vehicle: distilled water + Tween-80) was 115 % of control. The T/C (dose: 50.0 mg/kg/injection, vehicle: distilled water + Tween-80) was 121 % of control, the T/C (dose: 100.0 mg/kg/injection, vehicle: distilled water + Tween-80) was 121 % of control and the T/C (dose: 200.0 mg/kg/injection, vehicle: distilled water + Tween-80) was 105 % of control.

— PubChem BioAssay AID200 (DTP/NCI, 2004)
